Legend:
[1] = test system: wildtype Wnt signaling cascade; experiment: HEK293 TOP assay (Super TopFlash luciferase reporter, Wnt-3a stimulated); format: cell-based; conditions: Homo sapiens, HEK293, 16 h, HEK293 TOP reporter cells, Wnt3a at EC50, 16 hours
Summary of the method: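 HEK293 cells stably carrying Super TopFlash (TOP) run in parallel with FOP cells, 10000/well plated 24 h ahead, stimulated with recombinant human Wnt-3a. Compounds tested 50 μM to 15 nM in 3.16-fold steps in CAFTY buffer pH 7.4 with 2 mM Ca^2+ and 0.01% BSA; luciferase read-out.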

[2] = molecular target: T1, TNKS2 (Homo sapiens, UniProt Q9H2K2); experiment: TNKS2 Assay B (auto-parsylation, [3H]-NAD+ SPA); format: biochemical; conditions: 6 nM TNKS2, auto-parsylation, over night at room temperature
T1 construct: purchased BPS Bioscience, San Diego, USA 80572 (TNKS2 Histone Ribosylation Assay Kit)
T1 sequence (Q9H2K2 1-1166): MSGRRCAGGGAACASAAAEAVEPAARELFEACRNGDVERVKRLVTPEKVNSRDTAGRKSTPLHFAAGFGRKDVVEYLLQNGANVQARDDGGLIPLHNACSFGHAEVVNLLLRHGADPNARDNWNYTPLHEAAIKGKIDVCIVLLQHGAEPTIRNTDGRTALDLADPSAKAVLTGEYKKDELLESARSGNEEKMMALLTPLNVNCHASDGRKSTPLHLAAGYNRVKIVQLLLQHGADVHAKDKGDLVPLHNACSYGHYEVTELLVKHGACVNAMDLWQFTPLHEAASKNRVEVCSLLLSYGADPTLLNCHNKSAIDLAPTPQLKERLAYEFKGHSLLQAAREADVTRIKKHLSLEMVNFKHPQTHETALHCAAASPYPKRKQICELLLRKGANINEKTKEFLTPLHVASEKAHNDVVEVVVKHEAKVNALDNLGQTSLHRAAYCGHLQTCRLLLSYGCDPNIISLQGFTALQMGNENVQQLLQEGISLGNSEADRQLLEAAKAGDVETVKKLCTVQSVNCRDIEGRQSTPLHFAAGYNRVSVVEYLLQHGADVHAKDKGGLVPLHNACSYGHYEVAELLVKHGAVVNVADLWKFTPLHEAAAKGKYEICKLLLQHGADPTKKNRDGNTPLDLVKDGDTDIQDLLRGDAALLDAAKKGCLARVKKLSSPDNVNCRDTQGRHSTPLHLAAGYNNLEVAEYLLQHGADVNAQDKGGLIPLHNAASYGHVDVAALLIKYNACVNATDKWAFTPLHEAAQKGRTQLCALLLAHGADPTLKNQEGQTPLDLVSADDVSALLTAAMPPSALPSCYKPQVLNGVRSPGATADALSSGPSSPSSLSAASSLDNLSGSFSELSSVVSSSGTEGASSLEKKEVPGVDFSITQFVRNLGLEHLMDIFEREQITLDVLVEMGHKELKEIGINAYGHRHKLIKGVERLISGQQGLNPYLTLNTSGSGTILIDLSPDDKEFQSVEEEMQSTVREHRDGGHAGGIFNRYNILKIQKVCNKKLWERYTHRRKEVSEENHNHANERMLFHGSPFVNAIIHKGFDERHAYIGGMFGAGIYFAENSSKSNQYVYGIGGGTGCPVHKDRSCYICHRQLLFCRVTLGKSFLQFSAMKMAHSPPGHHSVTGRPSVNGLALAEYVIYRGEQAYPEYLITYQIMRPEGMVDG

[3] = test system: HEK293 cells cotransfected with the FOP control vector; experiment: HEK293 FOP assay (control reporter with non-functional TCF elements); format: cell-based; conditions: Homo sapiens, 16 hours
Summary of the method: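 Stable HEK293 line carrying FOP control reporter (randomized non-functional TCF sites, with pcDNA3), Geneticin-selected, plated 24 h before assay. Stimulated with recombinant human Wnt-3a (2500-5 ng/ml) and compounds 50 μM–15 nM (3.16-fold steps) in CAFTY buffer pH 7.4 with 2 mM Ca2+, 0.01% BSA, run parallel to TOP line.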

| Structure (SMILES) | IC50 [1] [nM] | IC50 [2] [nM] | IC50 [3] [nM] |
| --- | --- | --- | --- |
| COC(C)(C)CNC(=O)c1nc[nH]c1C(=O)N[C@H]1CC[C@H](C(=O)Nc2cc(C)c(F)cc2Cl)CC1 [Example 101, N^5-{trans-4-[(2-chloro-4-fluoro-5-methylphenyl)carbamoyl]cyclohexyl}-N^4-(2-methoxy-2-methylpropyl)-1H-imidazole-4,5-dicarboxamide] | 360 | 100 | 35000 |
| Cc1cc(C)n2ncc(C(=O)N[C@H]3CC[C@H](C(=O)Nc4ccncc4Cl)CC3)c2n1 [Example 102, N-{trans-4-[(3-chloropyridin-4-yl)carbamoyl]cyclohexyl}-5,7-dimethylpyrazolo[1,5-a]pyrimidine-3-carboxamide] | 120 | 200 | ≥ 50000 |
| O=C(N[C@H]1CC[C@H](C(=O)Nc2ccncc2Cl)CC1)c1cnc2cccnn12 [Example 103, N-{trans-4-[(3-chloropyridin-4-yl)carbamoyl]cyclohexyl}imidazo[1,2-b]pyridazine-3-carboxamide] | 410 | 290 | 27000 |
| Cc1cnc2c(C(=O)N[C@H]3CC[C@H](C(=O)Nc4ccncc4Cl)CC3)cnn2c1 [Example 104, N-{trans-4-[(3-chloropyridin-4-yl)carbamoyl]cyclohexyl}-6-methyl pyrazolo[1,5-a]pyrimidine-3-carboxamide] | 88 | 66 | ≥ 50000 |
| O=C(N[C@H]1CC[C@H](C(=O)Nc2ccncc2Cl)CC1)c1cnn2cccnc12 [Example 105, N-{trans-4-[(3-chloropyridin-4-yl)carbamoyl]cyclohexyl}pyrazolo[1,5-a]pyrimidine-3-carboxamide] | 240 | 120 | ≥ 50000 |
| CCOC(=O)c1cnc2c(C(=O)N[C@H]3CC[C@H](C(=O)Nc4ccc(F)cc4Cl)CC3)cnn2c1 [Example 106, ethyl 3-({trans-4-[(2-chloro-4-fluorophenyl)carbamoyl]cyclohexyl}carbamoyl)pyrazolo[1,5-a]pyrimidine-6-carboxylate] | 400 | 15 | ≥ 50000 |
| O=C(N[C@H]1CC[C@H](C(=O)Nc2ccc(F)cc2Cl)CC1)c1cnn2ccc(N3CCOCC3)nc12 [Example 107, N-{trans-4-[(2-chloro-4-fluorophenyl)carbamoyl]cyclohexyl}-5-(morpholin-4-yl)pyrazolo[1,5-a]pyrimidine-3-carboxamide] | 880 | 74 | ≥ 50000 |
| O=C(N[C@H]1CC[C@H](C(=O)Nc2ccc(F)cc2Cl)CC1)c1cnn2ccc(N3CCCC3)nc12 [Example 108] | 180 | 60 | ≥ 50000 |
| CN1CCN(c2ccn3ncc(C(=O)N[C@H]4CC[C@H](C(=O)Nc5ccc(F)cc5Cl)CC4)c3n2)CC1 [Example 109] | 3000 | 38 | ≥ 50000 |
| COCc1cc(C)n2ncc(C(=O)N[C@H]3CC[C@H](C(=O)Nc4ccc(F)cc4Cl)CC3)c2n1 [Example 110, N-{trans-4-[(2-chloro-4-fluorophenyl)carbamoyl]cyclohexyl}-5-(methoxymethyl)-7-methylpyrazolo[1,5-a]pyrimidine-3-carboxamide] | 270 | 86 | ≥ 50000 |
| COCc1cc(C)nc2c(C(=O)N[C@H]3CC[C@H](C(=O)Nc4ccc(F)cc4Cl)CC3)cnn12 [Example 111, N-{trans-4-[(2-chloro-4-fluorophenyl)carbamoyl]cyclohexyl}-7-(methoxymethyl)-5-methylpyrazolo[1,5-a]pyrimidine-3-carboxamide] | 73 | 210 | ≥ 50000 |
| COCc1cc(C)n2ncc(C(=O)N[C@H]3CC[C@H](C(=O)Nc4c(F)cc(F)cc4Cl)CC3)c2n1 [Example 112, N-{trans-4-[(2-chloro-4,6-difluorophenyl)carbamoyl]cyclohexyl}-5-(methoxymethyl)-7-methylpyrazolo[1,5-a]pyrimidine-3-carboxamide] | 190 | 68 | ≥ 50000 |
| Cc1nc2c(C(=O)N[C@H]3CC[C@H](C(=O)Nc4ccc(F)cc4Cl)CC3)cnn2c2c1CCC2 [Example 113, N-{trans-4-[(2-chloro-4-fluorophenyl)carbamoyl]cyclohexyl}-5-methyl-7,8-dihydro-6H-cyclopenta[e]pyrazolo[1,5-a]pyrimidine-3-carboxamide] | 94 | 52 | ≥ 50000 |
| CC(O)CNc1ccc2ncc(C(=O)N[C@H]3CC[C@H](C(=O)Nc4ccc(F)cc4Cl)CC3)n2n1 (stereo partly drawn) [Example 114, N-{trans-4-[(2-chloro-4-fluorophenyl)carbamoyl]cyclohexyl}-6-[(2-hydroxypropyl)amino]imidazo[1,2-b]pyridazine-3-carboxamide] | 1600 | 480 | ≥ 50000 |
| CNC(=O)c1[nH]cnc1C(=O)NC12CCC(C(=O)Nc3ccc(F)cc3Cl)(CC1)CC2 [Example 115, N^4-{4-[(2-chloro-4-fluorophenyl)carbamoyl]bicyclo[2.2.2]oct-1-yl}-N^5-methyl-1H-imidazole-4,5-dicarboxamide] | 180 | 190 | ≥ 50000 |
| CNC(=O)c1[nH]cnc1C(=O)NC12CCC(C(=O)Nc3c(F)cc(F)cc3Cl)(CC1)CC2 [Example 116, N^4-{4-[(2-chloro-4,6-difluorophenyl)carbamoyl]bicyclo[2.2.2]oct-1-yl}-N^5-methyl-1H-imidazole-4,5-dicarboxamide] | 330 | 590 | 8700 |
| O=C(NC12CCC(C(=O)Nc3ccc(F)cc3Cl)(CC1)CC2)c1cnn2cccnc12 [Example 117, N-{4-[(2-chloro-4-fluorophenyl)carbamoyl]bicyclo[2.2.2]oct-1-yl}pyrazolo[1,5-a]pyrimidine-3-carboxamide] | 220 | 460 | ≥ 50000 |
| Cc1cc(NC(=O)C23CCC(NC(=O)c4cnn5cccnc45)(CC2)CC3)c(Cl)cc1F [Example 118, N-{4-[(2-chloro-4-fluoro-5-methylphenyl)carbamoyl]bicyclo[2.2.2]oct-1-yl}pyrazolo[1,5-a]pyrimidine-3-carboxamide] | 300 | 67 | ≥ 50000 |
| O=C(NC12CCC(C(=O)Nc3c(F)cc(F)cc3Cl)(CC1)CC2)c1cnn2cccnc12 [Example 119, N-{4-[(2-chloro-4,6-difluorophenyl)carbamoyl]bicyclo[2.2.2]oct-1-yl}pyrazolo[1,5-a]pyrimidine-3-carboxamide] | 390 | 610 | ≥ 50000 |
| O=C(NC12CCC(C(=O)Nc3cnccc3Cl)(CC1)CC2)c1cnn2cccnc12 [Example 120, N-{4-[(4-chloropyridin-3-yl)carbamoyl]bicyclo[2.2.2]oct-1-yl}pyrazolo[1,5-a]pyrimidine-3-carboxamide] | 140 | 260 | 7100 |
| O=C(NC12CCC(C(=O)Nc3ccc(F)cc3Cl)(CC1)CC2)c1cnc2cccnn12 [Example 121, N-{4-[(2-chloro-4-fluorophenyl)carbamoyl]bicyclo[2.2.2]oct-1-yl}imidazo[1,2-b]pyridazine-3-carboxamide] | 30 | 330 | ≥ 50000 |
| Cc1cc(NC(=O)C23CCC(NC(=O)c4cnc5cccnn45)(CC2)CC3)c(Cl)cc1F [Example 122, N-{4-[(2-chloro-4-fluoro-5-methylphenyl)carbamoyl]bicyclo[2.2.2]oct-1-yl}imidazo[1,2-b]pyridazine-3-carboxamide] | 470 | 190 | ≥ 50000 |

Source: US20180148418A1, “AMIDO-SUBSTITUTED CYCLOHEXANE DERIVATIVES” (Bayer Pharma Aktiengesellschaft, priority 2015, published 2018)
